For one series, the system named is MHEC5-T cells. The series can be described thus: Cell protection assay (in vitro), H2O2-induced cell death, Alamar blue. It counts as cell-based. The conditions noted are these: MHEC5-T endothelial cells, 3 mM H2O2, 5 hours; 50% of maximum protection, 10 μM DHCH defined as 100%; read-out: EC50, cell protection (in vitro). As for the experimental part: 2) Test Description Cell Protection Assay (in vitro)
In accordance with a method described by Bowes [Bowes et al., Br. J. Pharmacol., 124, 1760-1766 (1998)], the ability of PARS inhibitors to protect cells against cell death induced by incubation with H2O2 is examined in a cell protection assay. Incubation of endothelial cells with H2O2 results in the generation of DNA strand breaks which in turn activate PARS, resulting in a drastic energy decrease in the cells and in cell death. Living cells are quantified by a fluorimetric redox indicator (Alamar blue), which is converted in the electron transport system of the mitochondria.
Specifically, 7500 MHEC5-T cells/well (DSM ACC 336; German collection of microorganisms and cell cultures) are sown in 4 replications on a 96-well plate. After 24 hours, the cells are incubated with 3 mM aqueous H2O2 solution and differing concentrations of the substances in the presence of 6% by volume of Alamar blue solution in the medium at 37° C. for 5 hours. The reference substance used is 10 μM 1,5-dihydroxyisoquinoline (DHCH) solution. After the incubation, the fluorescence is measured at an excitation wavelength of 530-560 nm and an emission wavelength of 590 nm. The percentage for the cell protection is calculated as the difference between the living cells treated only with H2O2 and the cells treated with H2O2 and PARS inhibitors. The internal standard used is 10 μM DHCH, which is defined as 100% protection. The results obtained for the other substances are compared to this value.
The EC50 values indicate the concentration at which 50% of maximum cell protection is reached, maximum protection by 10 μM DHCH being defined as 100%. DHCH has an EC50 value of 2 μM.
For the molecule `CN(CCCn1c2c(c(=O)[nH]c1=O)CSCC2)S(=O)(=O)c1ccsc1[N+](=O)[O-]` [Example 67], the EC50 was 0.05 µM.

With `CN(CCCn1c2c(c(=O)[nH]c1=O)CSCC2)S(=O)(=O)c1ccc(F)cc1` [Example 58], the EC50 is 0.4 µM.

As for `CN(CCCn1c2c(c(=O)[nH]c1=O)CSCC2)S(=O)(=O)c1ccccc1` [Example 2, N-[3-(2,4-Dioxo-3,4,7,8-tetrahydro-2H-thiopyrano[4,3-d]pyrimidin-1(5H)-yl)propyl]-N-methylphenylsulphonamide], the EC50 was 0.5 µM. As for `CN(CCCn1c2c(c(=O)[nH]c1=O)CSCC2)S(=O)(=O)c1ccc2oc(=O)ccc2c1` [Example 57], the EC50 stood at 0.3 µM.

As for `CN(CCCn1c2c(c(=O)[nH]c1=O)CCCC2)S(=O)(=O)c1cccc2nsnc12` [Example 61], the EC50 is 0.5 µM. In the case of `CN(CCCn1c2c(c(=O)[nH]c1=O)CCCC2)S(=O)(=O)c1cccnc1` [Example 55], the EC50 amounted to 0.4 µM. Consider `CN(CCCn1c2c(c(=O)[nH]c1=O)CSCC2)S(=O)(=O)c1cccnc1` [Example 59], for which the EC50 stood at 0.25 µM.

The series is the same for the next values; noted with them: MHEC5-T endothelial cells, 3 mM H2O2, 5 hours; reference substance; read-out: EC50 value, cell protection.
`Oc1cccc2c(O)nccc12` [DHCH, 1,5-dihydroxyisoquinoline, reference compound]: the concentration giving a half-maximal response (EC50) turned out to be 2 µM.

Test system in the next series: not given
Experiment: not given
Settings: not given
`CN(CCCn1c2c(c(=O)[nH]c1=O)CCCC2)S(=O)(=O)c1cn(C)cn1` [Example 65]: the melting point amounted to 128 °C. On the same count and under the same terms, the result for `CC(=O)Nc1nc(C)c(S(=O)(=O)N(C)CCCn2c3c(c(=O)[nH]c2=O)CCCC3)s1` [Example 63] reads more than 240 °C; that for `O=c1[nH]c(=O)n(C2CCCC(NS(=O)(=O)c3ccc([N+](=O)[O-])cc3)C2)c2c1CCCC2` (centres unmarked) [Example 3, N-[3-(2,4-Dioxo-3,4,5,6,7,8-hexahydro-1(2H)-quinazolinyl)cyclohexyl]4-nitrobenzenesulphonamide], more than 240 °C; that for `O=c1ccc2cc(S(=O)(=O)NC3CCCC(n4c5c(c(=O)[nH]c4=O)CCCC5)C3)ccc2o1` (centres unmarked) [Example 51], more than 240 °C. The same measure, in the same setting: the figure for `CN(CCCn1c2c(c(=O)[nH]c1=O)CCCC2)S(=O)(=O)c1cccc2nsnc12` [Example 61] is 170 °C; for `CN(CCCn1c2c(c(=O)[nH]c1=O)CCCC2)S(=O)(=O)c1c(Cl)nc2sccn12` [Example 62] it is more than 240 °C; for `O=C1CCCN1CCCn1c2c(c(=O)[nH]c1=O)CCCC2` [Example 1, 1-[3-(2-Oxo-1-pyrrolidinyl)propyl]-5,6,7,8-tetrahydro-2,4(1H,3H)-quinazolinedione] it is 189 °C.

The test system of the next series is cytochrome P450.
Experiment: not given
The conditions noted are these: Eriksson et al. 1996; cited from earlier work.
As for `NC(=O)c1cccc(N)c1` [3-aminobenzamide], the “inhibition of cytochrome P450 (unspecific PARS inhibitor)” value is on record as “inhibits cytochrome P450”.

Test system in a further series: not given
Experiment: not given
The note with it: Szabo and Dawson 1998; cited from earlier work.
For `Nc1ccc2oc(=O)ccc2c1I` [5-iodo-6-amino-1,2-benzopyrone], the side-effects entry is “serious side-effects”.
